What was measured:
[1] = system: breast cancer cell lines; details: 0.1 μM DOX alone or combined with 50 μM SC; cited from earlier work
[2] = system: glioblastoma cell lines U87, U87-TxR and U251; test: DOX accumulation test, flow cytometry; format: cell-based, human; details: 20 μM and 50 μM SC with 20 μM DOX, 60 min
Protocol: (§1) • a) First, DOX accumulation test was performed on three glioblastoma cell lines, U87, U87-TxR, and U251. Cells were trypsinized and counted, and then 100,000 cells per sample were collected in a tube for flow cytometry and resuspended in 500 μL of culture medium. Cells were treated with 20 μM and 50 µM SC. Immediately after SC treatment, cells were treated with 20 μM DOX, and samples were incubated at 37° C. in a humid atmosphere with 5% CO2 for 60 min. After the accumulation period, the samples were centrifuged, washed twice with cold Phosphate Buffered Saline (PBS), and finally resuspended in 1 mL of PBS. The fluorescence of the samples was read on the FL2 (red channel) of a cytofluorimeter (Partec, Munster, Germany), and the results were analyzed with the software package Summit 4.3. • b) Secondly, DOX and rhodamine 123 accumulation test was performed on non-small cell lung carcinoma cell lines NCI-H460 and NCI-H460/R. Cells were trypsinized and counted, and then 100,000 cells per sample were collected in a tube for flow cytometry and resuspended in 500 μl of culture medium. Cells were treated with 50 μM SC. Immediately after treatment, 5 μM Rho123 was added to one group of samples and the other 20 μM DOX. […] The samples were analyzed using a flow cytometer, reading for rhodamine 123 on FL1 (green channel) and DOX on FL2 (red channel). […]

[3] = biological target: T1, P-glycoprotein activity in NCI-H460/R (Homo sapiens, UniProt P08183); test: DOX and rhodamine 123 accumulation test, flow cytometry; format: cell-based
T1 construct: obtained by successive exposure of NCI-H460 cells to increasing concentrations of DOX; endogenous in cells; host or cells: NCI-H460/R (doxorubicin-selected from NCI-H460)
T1 sequence (P08183 whole entry): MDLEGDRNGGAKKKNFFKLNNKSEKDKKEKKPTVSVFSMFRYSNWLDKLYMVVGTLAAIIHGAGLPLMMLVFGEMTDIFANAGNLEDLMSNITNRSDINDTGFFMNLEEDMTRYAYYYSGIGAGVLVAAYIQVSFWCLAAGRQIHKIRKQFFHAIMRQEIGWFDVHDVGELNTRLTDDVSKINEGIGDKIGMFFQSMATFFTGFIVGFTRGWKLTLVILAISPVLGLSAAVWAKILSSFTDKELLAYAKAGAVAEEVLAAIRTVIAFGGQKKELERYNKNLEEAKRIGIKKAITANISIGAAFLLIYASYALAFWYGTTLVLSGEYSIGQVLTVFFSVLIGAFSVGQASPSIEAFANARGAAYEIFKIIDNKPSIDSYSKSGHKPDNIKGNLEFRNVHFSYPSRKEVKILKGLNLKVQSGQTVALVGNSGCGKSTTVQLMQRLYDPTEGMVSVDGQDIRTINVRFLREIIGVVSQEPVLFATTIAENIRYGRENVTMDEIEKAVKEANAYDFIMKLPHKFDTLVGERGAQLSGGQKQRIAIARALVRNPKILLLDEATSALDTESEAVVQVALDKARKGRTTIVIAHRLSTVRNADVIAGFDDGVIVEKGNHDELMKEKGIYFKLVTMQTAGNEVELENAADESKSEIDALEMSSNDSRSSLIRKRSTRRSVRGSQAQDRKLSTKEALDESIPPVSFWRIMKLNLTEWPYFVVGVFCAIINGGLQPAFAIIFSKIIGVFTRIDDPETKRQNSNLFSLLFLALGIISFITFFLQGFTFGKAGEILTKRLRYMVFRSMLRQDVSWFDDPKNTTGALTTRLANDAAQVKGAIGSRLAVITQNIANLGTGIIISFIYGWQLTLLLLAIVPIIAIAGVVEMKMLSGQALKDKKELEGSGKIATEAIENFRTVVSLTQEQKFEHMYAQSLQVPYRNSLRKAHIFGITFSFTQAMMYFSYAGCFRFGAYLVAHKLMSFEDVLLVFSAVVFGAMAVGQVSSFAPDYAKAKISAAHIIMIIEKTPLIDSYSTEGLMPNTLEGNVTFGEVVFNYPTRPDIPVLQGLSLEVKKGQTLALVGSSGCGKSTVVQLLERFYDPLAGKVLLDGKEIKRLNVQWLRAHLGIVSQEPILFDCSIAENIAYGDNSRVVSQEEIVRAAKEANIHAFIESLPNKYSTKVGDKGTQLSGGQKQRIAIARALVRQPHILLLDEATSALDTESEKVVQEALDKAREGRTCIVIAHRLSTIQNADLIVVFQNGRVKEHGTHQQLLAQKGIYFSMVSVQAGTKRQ
Protocol: as §1

[4] = system: P-glycoprotein-deficient NCI-H460 cells; test: as above; format: cell-based, human; details: 50 μM SC
Protocol: as §1

| Structure (SMILES) | rate of cell growth [1] | accumulation of DOX [2] | accumulation of DOX ([3]; 50 μM SC with 20 μM DOX, 60 min) | accumulation of rhodamine 123 / P-glycoprotein activity ([3]; 50 μM SC with rhodamine 123, 30 min) | DOX or rhodamine 123 accumulation [4] |
| --- | --- | --- | --- | --- | --- |
| COc1cccc2c1C(=O)c1c(O)c3c(c(O)c1C2=O)C[C@@](O)(C(=O)CO)C[C@@H]3O[C@H]1C[C@H](N)[C@H](O)[C@H](C)O1 [DOX, doxorubicin] | 76% | – | – | – | – |
| C=C[C@](C)(O)CC[C@@H]1[C@@]2(C)CCCC(C)(C)[C@@H]2CC[C@@]1(C)O [SC, sclareol] | – | increase the accumulation of DOX | increased | inhibition of P-glycoprotein activity | did not show any increase |
